Test results taken from patent US6534507B1 (Fabre-Kramer Pharmaceuticals, Inc., priority 1999, dated 2003).
Where “and” joins values, the source holds several entries; their conditions need not be identical. Equal values may be shown once.

Experiments:
5-HT1A receptor = biological target: T1, 5-HT1A receptor (Homo sapiens, UniProt P08908); experiment: human monoamine GPCR binding profile, 5-HT1A
T1 construct: expressed in transfected cells
T1 sequence (P08908 1-422): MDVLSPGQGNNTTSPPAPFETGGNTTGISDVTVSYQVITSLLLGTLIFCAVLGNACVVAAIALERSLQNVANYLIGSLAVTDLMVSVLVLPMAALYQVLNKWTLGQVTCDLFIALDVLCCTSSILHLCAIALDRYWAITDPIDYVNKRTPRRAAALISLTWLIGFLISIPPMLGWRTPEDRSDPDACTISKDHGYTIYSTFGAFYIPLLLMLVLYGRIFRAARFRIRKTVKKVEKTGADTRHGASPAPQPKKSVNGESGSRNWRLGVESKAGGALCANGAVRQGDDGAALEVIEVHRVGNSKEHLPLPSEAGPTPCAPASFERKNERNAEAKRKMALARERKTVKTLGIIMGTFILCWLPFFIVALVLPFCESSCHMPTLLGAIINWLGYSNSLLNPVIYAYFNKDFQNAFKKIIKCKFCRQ
Excerpt: (§1) As known in the art, human monoamine GPCR binding profiles were obtained using heterologously expressed cloned human GPCRs in the binding experiments. Both pKi and IC50 (nM concentration) values were obtained as well as an average value of each from at least three determinations.

D2A = biological target: T2, D2A (Homo sapiens, UniProt P14416); experiment: dopaminergic receptor binding, D2A; details: result in words
T2 construct: expressed in transfected cells
Procedure: as §1
(§2) Dopaminergic receptors D2A, D2B, D3, and D4 were also tested.

D2B = biological target: T3, D2B (Homo sapiens, UniProt P14416); experiment: dopaminergic receptor binding, D2B; details: result in words
T3 construct: expressed in transfected cells
Procedure: as §1, §2

D3 = biological target: T4, D3 (Homo sapiens, UniProt P35462); experiment: dopaminergic receptor binding, D3; details: result in words
T4 construct: expressed in transfected cells
Procedure: as §1, §2

D4 = biological target: T5, D4 (Homo sapiens, UniProt P21917); experiment: dopaminergic receptor binding, D4
T5 construct: expressed in transfected cells
T5 sequence (P21917 1-419): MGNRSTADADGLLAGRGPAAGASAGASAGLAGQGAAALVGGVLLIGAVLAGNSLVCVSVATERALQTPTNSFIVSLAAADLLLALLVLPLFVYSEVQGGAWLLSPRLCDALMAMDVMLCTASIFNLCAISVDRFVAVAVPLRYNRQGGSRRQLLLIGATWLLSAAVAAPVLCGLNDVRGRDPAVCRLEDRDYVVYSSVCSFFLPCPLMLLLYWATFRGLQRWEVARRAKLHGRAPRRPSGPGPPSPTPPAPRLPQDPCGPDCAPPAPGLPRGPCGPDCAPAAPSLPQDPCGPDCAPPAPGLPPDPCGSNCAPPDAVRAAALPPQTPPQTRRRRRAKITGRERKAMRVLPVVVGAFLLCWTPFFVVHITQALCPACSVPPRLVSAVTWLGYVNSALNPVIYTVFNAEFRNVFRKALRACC
Procedure: as §1, §2

Alpha 2A = biological target: T6, Alpha 2A (Homo sapiens, UniProt P08913); experiment: alpha-adrenergic receptor binding, Alpha 2A; details: result in words
T6 construct: expressed in transfected cells
T6 sequence (P08913 1-465): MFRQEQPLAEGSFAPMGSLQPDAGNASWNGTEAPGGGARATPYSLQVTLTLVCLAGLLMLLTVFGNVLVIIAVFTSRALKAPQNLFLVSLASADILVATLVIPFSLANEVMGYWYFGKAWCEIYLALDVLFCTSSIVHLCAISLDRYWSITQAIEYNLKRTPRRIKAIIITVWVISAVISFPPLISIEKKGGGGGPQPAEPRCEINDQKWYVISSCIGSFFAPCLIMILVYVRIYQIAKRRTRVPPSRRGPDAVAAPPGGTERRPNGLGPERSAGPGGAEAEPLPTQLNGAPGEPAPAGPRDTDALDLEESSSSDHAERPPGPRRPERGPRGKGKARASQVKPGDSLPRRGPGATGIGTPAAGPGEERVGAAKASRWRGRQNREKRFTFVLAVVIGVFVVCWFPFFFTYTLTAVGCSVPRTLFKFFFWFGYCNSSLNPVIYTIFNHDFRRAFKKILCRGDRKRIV
Procedure: as §1, §2

Alpha 2B = biological target: T7, Alpha 2B (Homo sapiens, UniProt P18089); experiment: alpha-adrenergic receptor binding, Alpha 2B; details: result in words
T7 construct: expressed in transfected cells
T7 sequence (P18089 1-450): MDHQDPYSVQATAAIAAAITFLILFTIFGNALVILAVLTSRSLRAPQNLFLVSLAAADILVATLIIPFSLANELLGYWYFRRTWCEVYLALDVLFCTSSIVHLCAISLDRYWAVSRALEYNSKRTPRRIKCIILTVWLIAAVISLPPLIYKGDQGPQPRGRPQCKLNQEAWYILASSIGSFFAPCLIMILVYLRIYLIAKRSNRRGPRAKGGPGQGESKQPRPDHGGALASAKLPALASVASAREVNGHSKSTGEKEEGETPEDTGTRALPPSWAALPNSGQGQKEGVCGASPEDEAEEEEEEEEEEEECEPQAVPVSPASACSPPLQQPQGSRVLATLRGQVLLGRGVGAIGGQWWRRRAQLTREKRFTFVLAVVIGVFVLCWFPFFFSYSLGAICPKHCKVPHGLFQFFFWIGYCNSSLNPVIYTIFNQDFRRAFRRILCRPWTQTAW
Procedure: as §1, §2

Alpha 2C receptor = biological target: T8, Alpha 2C receptor (Homo sapiens, UniProt P18825); experiment: alpha-adrenergic receptor binding, Alpha 2C; details: result in words
T8 construct: expressed in transfected cells
T8 sequence (P18825 1-462): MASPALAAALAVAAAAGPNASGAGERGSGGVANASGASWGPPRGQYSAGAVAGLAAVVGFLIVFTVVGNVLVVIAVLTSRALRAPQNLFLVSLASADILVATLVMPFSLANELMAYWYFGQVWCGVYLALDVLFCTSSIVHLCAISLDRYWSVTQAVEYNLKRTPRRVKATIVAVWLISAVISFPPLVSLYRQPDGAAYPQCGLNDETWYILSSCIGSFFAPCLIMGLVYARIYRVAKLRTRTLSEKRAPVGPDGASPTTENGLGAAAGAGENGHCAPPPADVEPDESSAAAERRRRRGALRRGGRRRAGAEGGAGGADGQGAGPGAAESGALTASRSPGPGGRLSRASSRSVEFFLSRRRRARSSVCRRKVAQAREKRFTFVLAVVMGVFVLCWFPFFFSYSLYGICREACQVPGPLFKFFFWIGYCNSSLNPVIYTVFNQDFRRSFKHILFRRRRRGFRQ
Procedure: as §1, §2

M1 = biological target: T9, M1 (Homo sapiens, UniProt P11229); experiment: muscarinic receptor binding, M1; details: read-out: pKi M1 (converted)
T9 construct: expressed in transfected cells
T9 sequence (P11229 1-460): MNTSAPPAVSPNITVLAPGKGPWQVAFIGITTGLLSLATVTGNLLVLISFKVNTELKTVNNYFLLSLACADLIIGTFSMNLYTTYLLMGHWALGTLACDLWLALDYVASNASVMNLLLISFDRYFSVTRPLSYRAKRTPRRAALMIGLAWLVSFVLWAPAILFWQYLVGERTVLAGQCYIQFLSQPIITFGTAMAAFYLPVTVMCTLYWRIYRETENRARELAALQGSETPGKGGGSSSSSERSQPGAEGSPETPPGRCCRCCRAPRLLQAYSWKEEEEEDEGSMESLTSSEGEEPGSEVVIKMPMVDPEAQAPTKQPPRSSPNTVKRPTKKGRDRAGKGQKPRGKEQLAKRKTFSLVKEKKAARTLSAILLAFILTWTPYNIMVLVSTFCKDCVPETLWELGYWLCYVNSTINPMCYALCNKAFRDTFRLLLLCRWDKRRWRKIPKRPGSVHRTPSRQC
Excerpt: as §1

M2 = biological target: T10, M2 (Homo sapiens, UniProt P08172); experiment: muscarinic receptor binding, M2; details: read-out: pKi M2 (converted)
T10 construct: expressed in transfected cells
T10 sequence (P08172 1-466): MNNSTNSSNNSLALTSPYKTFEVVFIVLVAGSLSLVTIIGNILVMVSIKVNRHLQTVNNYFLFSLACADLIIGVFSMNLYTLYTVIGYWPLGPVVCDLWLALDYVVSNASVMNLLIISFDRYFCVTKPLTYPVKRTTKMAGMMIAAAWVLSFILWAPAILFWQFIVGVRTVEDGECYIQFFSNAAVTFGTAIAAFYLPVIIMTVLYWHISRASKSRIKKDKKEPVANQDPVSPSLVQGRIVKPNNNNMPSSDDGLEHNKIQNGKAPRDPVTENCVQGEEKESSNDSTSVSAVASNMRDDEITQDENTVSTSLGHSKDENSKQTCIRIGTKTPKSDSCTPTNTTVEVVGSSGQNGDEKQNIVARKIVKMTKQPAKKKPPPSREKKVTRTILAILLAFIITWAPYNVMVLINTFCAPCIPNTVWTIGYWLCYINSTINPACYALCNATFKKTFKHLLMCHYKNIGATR
Excerpt: as §1

M3 = biological target: T11, M3 (Homo sapiens, UniProt P20309); experiment: muscarinic receptor binding, M3; details: read-out: pKi M3 (converted)
T11 construct: expressed in transfected cells
Excerpt: as §1

M4 = biological target: T12, M4 (Homo sapiens, UniProt P08173); experiment: muscarinic receptor binding, M4; details: read-out: pKi M4 (converted)
T12 construct: expressed in transfected cells
T12 sequence (P08173 1-479): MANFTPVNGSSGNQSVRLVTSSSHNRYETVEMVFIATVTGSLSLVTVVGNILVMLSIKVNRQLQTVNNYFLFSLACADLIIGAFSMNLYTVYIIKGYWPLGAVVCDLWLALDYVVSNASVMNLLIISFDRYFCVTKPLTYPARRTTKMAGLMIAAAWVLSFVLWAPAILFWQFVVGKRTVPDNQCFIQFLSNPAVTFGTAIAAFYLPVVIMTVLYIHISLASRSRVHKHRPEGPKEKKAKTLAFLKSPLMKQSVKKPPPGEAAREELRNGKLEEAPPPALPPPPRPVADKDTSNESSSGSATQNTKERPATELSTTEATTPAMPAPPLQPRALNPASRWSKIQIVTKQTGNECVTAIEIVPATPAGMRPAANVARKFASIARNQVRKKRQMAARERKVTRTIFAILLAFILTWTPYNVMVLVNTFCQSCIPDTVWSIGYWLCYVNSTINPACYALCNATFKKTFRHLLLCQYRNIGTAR
Excerpt: as §1

[1] = plasma levels of 3-OH gepirone after administration of gepirone; type: in vivo; details: human subjects administered a dose of gepirone; FIG. 2; result in words
Procedure: “Time (H)” represents time after administration.
Each sample corresponds to a 0.5 ml plasma sample, extracted with 6 ml of (2:1) (v/v) hexane:chloroform for 1 hour. After separation by centrifuge, the organic layer is transferred to a 10 ml conical tube and 90 ul of 1% formic acid is added. The tube is vortexed for 10 minutes and centrifuged for 5 minutes. About 80 ul of the formic acid layer is transferred into injection vials for HPLC/MS analysis.

[2] = cited from earlier work; for half-life: result in words

T11 sequence (P20309 whole entry): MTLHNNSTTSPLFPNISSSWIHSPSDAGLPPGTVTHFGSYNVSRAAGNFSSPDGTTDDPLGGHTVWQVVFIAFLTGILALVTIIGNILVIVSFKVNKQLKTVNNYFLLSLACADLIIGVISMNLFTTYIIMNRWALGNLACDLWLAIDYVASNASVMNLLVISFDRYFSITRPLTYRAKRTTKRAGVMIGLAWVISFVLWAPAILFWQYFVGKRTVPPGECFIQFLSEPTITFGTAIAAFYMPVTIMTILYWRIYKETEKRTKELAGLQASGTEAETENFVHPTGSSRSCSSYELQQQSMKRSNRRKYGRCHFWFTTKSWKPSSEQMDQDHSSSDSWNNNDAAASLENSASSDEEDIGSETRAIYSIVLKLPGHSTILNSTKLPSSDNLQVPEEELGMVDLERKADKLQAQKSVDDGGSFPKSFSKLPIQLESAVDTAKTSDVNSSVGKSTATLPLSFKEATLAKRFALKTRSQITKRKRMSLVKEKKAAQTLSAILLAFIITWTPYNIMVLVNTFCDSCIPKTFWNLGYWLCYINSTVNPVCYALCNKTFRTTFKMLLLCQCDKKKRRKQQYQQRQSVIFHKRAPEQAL
T2 sequence (P14416 whole entry): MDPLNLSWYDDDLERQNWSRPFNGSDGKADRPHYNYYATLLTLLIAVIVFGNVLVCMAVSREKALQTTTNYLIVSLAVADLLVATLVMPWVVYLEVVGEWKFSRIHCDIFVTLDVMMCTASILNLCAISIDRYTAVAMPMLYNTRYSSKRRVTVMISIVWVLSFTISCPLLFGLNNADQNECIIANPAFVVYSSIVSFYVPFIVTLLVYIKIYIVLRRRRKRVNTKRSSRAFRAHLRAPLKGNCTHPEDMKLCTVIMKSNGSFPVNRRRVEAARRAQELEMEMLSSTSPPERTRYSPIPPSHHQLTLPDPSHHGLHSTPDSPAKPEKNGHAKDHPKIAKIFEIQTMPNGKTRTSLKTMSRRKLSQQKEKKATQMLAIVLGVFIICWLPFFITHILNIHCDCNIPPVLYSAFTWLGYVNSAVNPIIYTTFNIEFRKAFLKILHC
T4 sequence (P35462 whole entry): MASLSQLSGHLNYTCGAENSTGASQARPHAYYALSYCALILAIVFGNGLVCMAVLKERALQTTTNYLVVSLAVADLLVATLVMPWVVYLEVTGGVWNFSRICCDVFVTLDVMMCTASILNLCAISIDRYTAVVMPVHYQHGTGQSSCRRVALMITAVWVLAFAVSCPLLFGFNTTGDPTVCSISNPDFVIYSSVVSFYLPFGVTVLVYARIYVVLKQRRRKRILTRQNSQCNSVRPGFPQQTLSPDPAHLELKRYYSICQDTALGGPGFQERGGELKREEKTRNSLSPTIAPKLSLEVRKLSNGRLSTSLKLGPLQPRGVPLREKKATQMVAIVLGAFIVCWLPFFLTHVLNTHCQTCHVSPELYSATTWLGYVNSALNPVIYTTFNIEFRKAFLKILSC
T3 sequence (P14416 1-414 isoform P14416-2): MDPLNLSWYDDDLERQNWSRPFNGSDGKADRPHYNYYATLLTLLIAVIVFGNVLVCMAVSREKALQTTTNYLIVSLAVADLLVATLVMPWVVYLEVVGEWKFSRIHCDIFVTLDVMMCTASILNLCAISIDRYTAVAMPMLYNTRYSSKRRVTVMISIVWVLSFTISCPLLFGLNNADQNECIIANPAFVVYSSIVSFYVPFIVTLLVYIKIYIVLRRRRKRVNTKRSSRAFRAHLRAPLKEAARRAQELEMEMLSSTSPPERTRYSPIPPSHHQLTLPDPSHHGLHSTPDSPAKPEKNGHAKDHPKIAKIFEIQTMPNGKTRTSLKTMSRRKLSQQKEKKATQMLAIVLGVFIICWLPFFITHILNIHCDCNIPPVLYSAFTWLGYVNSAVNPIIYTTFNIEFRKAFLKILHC

SMILES: CC1(C)CC(=O)N(CCCCN2CCN(c3ncccn3)CC2)C(=O)C1O (stereo not drawn) [3-OH gepirone, 4,4,-dimethyl-3-hydroxy-1-[4-[4-(2-pyrimidinyl)-1-piperazinyl]butyl]-2,6-piperidinedione]
- IC50 (5-HT1A receptor; cloned human GPCR, average of at least three determinations): < 0.1 µM and ~0.058 µM
- selectivity for the 5-HT1A receptor among the serotonergic receptor subtypes (5-HT1A receptor; in vitro binding studies, result in words): highly selective
- binding at D2A (D2A): insignificant dopaminergic binding
- binding at D2B (D2B): insignificant dopaminergic binding
- binding at D3 (D3): insignificant dopaminergic binding
- IC50 (D4): ~1.42 µM
- affinity at Alpha 2A (Alpha 2A): did not display significant affinity
- affinity at Alpha 2B (Alpha 2B): did not display significant affinity
- binding at the Alpha 2C receptor (Alpha 2C receptor): weak binding
- Ki (M1): > 45.7 µM
- Ki (M2): > 45.7 µM
- Ki (M3): > 45.7 µM
- Ki (M4): > 45.7 µM
- plasma levels of 3-OH gepirone [1]: available quickly and persists in the plasma for extended periods of time

SMILES: O=C1CC2(CCCC2)CC(=O)N1CCCCN1CCN(c2ncccn2)CC1 [buspirone]
- half-life [2]: very short

SMILES: CC1(C)CC(=O)N(CCCCN2CCN(c3ncccn3)CC2)C(=O)C1 [gepirone, 4-dimethyl-1-[4-[4-(2-pyrimidinyl)-1-piperazinyl]butyl]-2,6-piperidinedione, reference compound]
- Ki (M1): > 45.7 µM
- Ki (M2): > 45.7 µM
- Ki (M3): > 45.7 µM
- Ki (M4): > 45.7 µM
- bioavailability ([2]; delivered orally): 14-18%
- half-life [2]: very short
